From patent US20210395239A1 (Hoffmann-La Roche Inc., priority 2018, published 2021)

Key:
[1] = biological target: T1, human TLR7 (Homo sapiens, UniProt Q9NYK1); test: HEK293-Blue-hTLR-7 cells assay (SEAP reporter, R848 stimulation); assay type: cell-based; details: HEK293-Blue-hTLR7 cells, R848, 20 hrs; read-out: HEK/hTLR7 IC50
T1 construct: host or cells: HEK293 (HEK-Blue hTLR7)
T1 sequence (Q9NYK1 27-1049): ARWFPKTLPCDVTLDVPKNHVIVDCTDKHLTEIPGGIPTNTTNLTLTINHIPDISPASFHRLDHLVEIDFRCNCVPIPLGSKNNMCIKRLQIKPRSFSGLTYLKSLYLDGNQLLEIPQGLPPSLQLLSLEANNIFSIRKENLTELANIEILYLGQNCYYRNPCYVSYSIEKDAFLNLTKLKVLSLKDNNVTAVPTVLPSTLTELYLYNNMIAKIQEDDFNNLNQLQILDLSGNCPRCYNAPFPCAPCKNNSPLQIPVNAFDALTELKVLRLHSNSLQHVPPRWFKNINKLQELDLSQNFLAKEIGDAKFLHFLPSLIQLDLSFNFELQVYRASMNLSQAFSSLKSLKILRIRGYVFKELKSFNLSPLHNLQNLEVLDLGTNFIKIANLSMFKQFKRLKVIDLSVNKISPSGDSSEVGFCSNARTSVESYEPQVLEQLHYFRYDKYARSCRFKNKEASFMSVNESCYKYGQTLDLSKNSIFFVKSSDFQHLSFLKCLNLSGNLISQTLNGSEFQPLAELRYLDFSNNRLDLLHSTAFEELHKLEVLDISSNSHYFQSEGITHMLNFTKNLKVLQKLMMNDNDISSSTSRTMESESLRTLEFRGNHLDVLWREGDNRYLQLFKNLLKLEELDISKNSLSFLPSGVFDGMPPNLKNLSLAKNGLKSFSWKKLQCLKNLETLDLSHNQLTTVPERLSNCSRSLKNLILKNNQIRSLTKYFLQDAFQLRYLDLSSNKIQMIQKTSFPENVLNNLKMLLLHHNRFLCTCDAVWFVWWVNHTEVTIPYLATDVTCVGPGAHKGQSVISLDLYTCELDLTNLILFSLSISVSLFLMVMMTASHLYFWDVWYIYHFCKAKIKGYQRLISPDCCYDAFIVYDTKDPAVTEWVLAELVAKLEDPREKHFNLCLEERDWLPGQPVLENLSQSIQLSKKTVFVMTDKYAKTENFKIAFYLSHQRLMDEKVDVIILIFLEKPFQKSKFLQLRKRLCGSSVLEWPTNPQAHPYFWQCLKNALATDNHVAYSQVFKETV
Procedure, shortened: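 HEK293-Blue-hTLR7 cells (NF-κB/AP-1-driven SEAP reporter) were stimulated with R848 alongside serially diluted compound at 1% final DMSO for 20 h at 37 °C. Supernatant SEAP was then developed with QUANTI-Blue for 2 h at 37 °C and absorbance read at 620–655 nm; antagonism is measured as reduced reporter signal.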

[2] = biological target: T2, CYP3A4 (Homo sapiens, UniProt P08684); test: CYP inhibition assay in human liver microsome, CYP3A4; assay type: in vitro ADME; details: human, human liver microsomes, probe midazolam 5 μM, substrate midazolam 5 μM, third value of 2C9/2D6/3A4
T2 construct: tissue BD-Gentest 452117; host or cells: human liver microsomes
T2 sequence (P08684 whole entry): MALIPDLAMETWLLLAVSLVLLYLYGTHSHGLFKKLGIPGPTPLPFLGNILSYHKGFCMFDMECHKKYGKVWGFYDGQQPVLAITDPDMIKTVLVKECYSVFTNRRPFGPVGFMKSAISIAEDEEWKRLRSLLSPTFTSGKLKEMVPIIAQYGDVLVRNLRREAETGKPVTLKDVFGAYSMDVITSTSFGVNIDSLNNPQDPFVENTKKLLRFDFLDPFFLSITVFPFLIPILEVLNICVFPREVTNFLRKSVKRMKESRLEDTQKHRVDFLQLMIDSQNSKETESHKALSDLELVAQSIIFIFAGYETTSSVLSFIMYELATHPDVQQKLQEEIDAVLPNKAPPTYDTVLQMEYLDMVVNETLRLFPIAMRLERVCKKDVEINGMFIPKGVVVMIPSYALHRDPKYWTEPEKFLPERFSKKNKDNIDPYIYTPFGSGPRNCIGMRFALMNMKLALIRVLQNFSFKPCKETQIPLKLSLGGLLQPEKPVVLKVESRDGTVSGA
Protocol: (§1) This is a high throughput screening assay used for assessment of reversible inhibition of CYP2C9, CYP2D6, and CYP3A4 activity of test compounds in human liver microsome (HLM) in early discovery stage.
(§2) 10 mM DMSO stock solutions of test compounds were diluted in DMSO to generate 2 mM intermediate stock solution. 250 nL, of intermediate stock solution were transferred in duplicate into 3 separate 384 well microtitre plates (assay-ready plates). A mixture of HLM and each substrate was made up. 45 μL of HLM substrate mix was then transferred to each well of an assay ready plate and mixed. The negative (solvent) and positive controls (standard inhibitor for each CYP) were included in each assay ready plate. The assay ready plate was warmed to 37° C. in an incubator over 10 minutes. 5 μL pre-warmed NADPH regenerating system was added to each incubation well to start the reaction. Final incubation volume was 50 μL. The assay plate then was placed back in the 37° C. incubator. After incubation (10 minutes for CYP2D6) for 5 minutes, incubates were quenched by addition of 50 μL 100% acetonitrile containing internal standards (400 ng/mL 13C6-4′-OH-Diclofenac, 20 ng/mL D3-Dextrorphan and 20 ng/mL D4-1′OH-Midazolam). The supernatants were collected for RapidFire/MS/MS analysis.
(§3) RapidFire online solid phase extraction/sample injection system (Agilent) coupled with API4000 triple quadrupole mass spectrometer (AB Sciex) were used for sample analysis. The mobile phase composed of acetonitrile and water supplemented with 0.1% formic acid. A C4 solid phase extraction cartridge is used for sample separation. MS detection is achieved in positive ion MRM mode.
(§4) Peak areas for substrate, metabolite and internal standard are determined using the RapidFire integrator software (version 3.6.12009.12296). Peak area ratios (PAR) of metabolite and internal standard (stable-labelled metabolite) are then calculated. The measurement window for each experiment is then defined:
(§5) PAR (0% activity)=average PAR for all incubations containing concentrated inhibitor; Par (100% activity)=average PAR for all incubations containing no inhibitor (DMSO controls); % Activity (test inhibitor)=[PAR (test inhibitor)−PAR (0% activity)]/[PAR (100% activity)−PAR (0% activity)]; % Inhibition (test inhibitor)=100-% Activity (test inhibitor).

[3] = biological target: T3, CYP2C9 (Homo sapiens, UniProt P11712); test: CYP inhibition assay in human liver microsome, CYP2C9; assay type: in vitro ADME; details: human, human liver microsomes, probe diclofenac 5 μM, substrate diclofenac 5 μM, first value of 2C9/2D6/3A4
T3 construct: tissue BD-Gentest 452117; host or cells: human liver microsomes
T3 sequence (P11712 whole entry): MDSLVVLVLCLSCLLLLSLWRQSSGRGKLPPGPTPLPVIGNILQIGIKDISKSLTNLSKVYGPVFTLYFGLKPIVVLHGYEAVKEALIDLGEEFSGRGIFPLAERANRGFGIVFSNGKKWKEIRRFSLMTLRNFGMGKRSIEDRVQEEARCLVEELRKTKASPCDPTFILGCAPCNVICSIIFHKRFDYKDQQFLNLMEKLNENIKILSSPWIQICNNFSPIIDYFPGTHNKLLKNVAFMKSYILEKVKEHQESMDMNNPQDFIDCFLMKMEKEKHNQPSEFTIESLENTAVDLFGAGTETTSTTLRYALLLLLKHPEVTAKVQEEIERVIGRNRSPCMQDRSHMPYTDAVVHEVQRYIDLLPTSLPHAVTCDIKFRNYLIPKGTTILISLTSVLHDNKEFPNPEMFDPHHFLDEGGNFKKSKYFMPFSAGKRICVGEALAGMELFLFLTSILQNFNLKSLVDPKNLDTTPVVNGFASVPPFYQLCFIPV
Protocol: as §1, §2, §3, §4, §5

IC50 [1] | inhibition at 5 min, 10 µM [2] | inhibition at 5 min, 10 µM [3] | SMILES
0.01 µM | 30.5% | -1% | CO[C@@H]1CN(c2ccc(C3CN(C[C@H]4CN(c5ccc(C#N)n6ncc(F)c56)C[C@@H](C)O4)C3)cn2)C[C@H]1N [Example 164, 4-[(2S,6R)-2-[[3-[6-[(3R,4R)-3-amino-4-methoxy-pyrrolidin-1-yl]-3-pyridyl]azetidin-1-yl]methyl]-6-methyl-morpholin-4-yl]-3-fluoro-pyrazolo[1,5-a]pyridine-7-carbonitrile]
0.023 µM | 7.5% | -1% | [2H]c1ccc2c(N3C[C@H](CN4CCN(c5ccc(N6CC(C)(N)C6)nc5)CC4)O[C@H](C)C3)ccc(C#N)c2n1 [Example 132, 5-[(2S,6R)-2-[[4-[6-(3-amino-3-methyl-azetidin-1-yl)-3-pyridyl]piperazin-1-yl]methyl]-6-methyl-morpholin-4-yl]-2-deuterio-quinoline-8-carbonitrile]
0.016 µM | 0.5% | 5.5% | C[C@@H]1CN(c2ccc(C#N)c3ncccc23)C[C@H](CN2CC(c3cccc(N4CCNCC4)c3)C2)O1 [Example 4, 5-[(2R,6S)-2-methyl-6-[[3-(3-piperazin-1-ylphenyl)azetidin-1-yl]methyl]morpholin-4-yl]quinoline-8-carbonitrile]
0.003 µM | 16% | 7.5% | Cc1cc(N2CCNCC2)nc(N2CCN(C[C@H]3CN(c4ccc(C#N)c5nccnc45)C[C@@H](C)O3)CC2)n1 [Example 114, 8-[(2R,6S)-2-methyl-6-[[4-(4-methyl-6-piperazin-1-yl-pyrimidin-2-yl)piperazin-1-yl]methyl]morpholin-4-yl]quinoxaline-5-carbonitrile]
0.009 µM | 20.5% | 17% | CO[C@H]1CN(c2nc(C)cc(N3CCN(C[C@H]4CN(c5ccc(C#N)c6nccnc56)C[C@@H](C)O4)CC3)n2)C[C@@H]1N [Example 106, 8-[(2S,6R)-2-[[4-[2-[(3S,4S)-3-amino-4-methoxy-pyrrolidin-1-yl]-6-methyl-pyrimidin-4-yl]piperazin-1-yl]methyl]-6-methyl-morpholin-4-yl]quinoxaline-5-carbonitrile]
0.084 µM | 14% | -7% | C[C@@H]1CN(c2ccc(C#N)c3ncccc23)C[C@H](CN2CCC(c3cccc(N4CCNCC4)c3)C2)O1 (stereo partly drawn) [Example 1, 5-[(2R,6S)-2-methyl-6-[[3-(3-piperazin-1-ylphenyl)pyrrolidin-1-yl]methyl]morpholin-4-yl]quinoline-8-carbonitrile]
0.003 µM | -0.5% | -5.5% | C[C@@H]1CN(c2ccc(C#N)n3ncc(F)c23)C[C@H](CN2CC(c3ccc(N4CC(C)(N)C4)nc3)C2)O1 [Example 158, 4-[(2S,6R)-2-[[3-[6-(3-amino-3-methyl-azetidin-1-yl)-3-pyridyl]azetidin-1-yl]methyl]-6-methyl-morpholin-4-yl]-3-fluoro-pyrazolo[1,5-a]pyridine-7-carbonitrile]
0.011 µM | 4.5% | -18% | C[C@@H]1CN(c2ccc(C#N)c3ncccc23)C[C@H](CN2CC(c3ccc(N4CCNCC4)cc3)C2)O1 [Example 3, 5-[(2R,6S)-2-methyl-6-[[3-(4-piperazin-1-ylphenyl)azetidin-1-yl]methyl]morpholin-4-yl]quinoline-8-carbonitrile]
0.007 µM | 9% | -8.5% | C[C@@H]1CN(c2ccc(C#N)n3ncc(F)c23)C[C@H](CN2CC(c3ccc(N4C[C@@H]5C[C@H]4CN5)nc3)C2)O1 [Example 165, 4-[(2S,6R)-2-[[3-[6-[(1S,4S)-2,5-diazabicyclo[2.2.1]heptan-2-yl]-3-pyridyl]azetidin-1-yl]methyl]-6-methyl-morpholin-4-yl]-3-fluoro-pyrazolo[1,5-a]pyridine-7-carbonitrile]
0.011 µM | 4.5% | -1.5% | C[C@@H]1CN(c2ccc(C#N)n3ncc(F)c23)C[C@H](CN2CC(c3ccc(N4CC(C)(N)C4)cc3)C2)O1 [Example 160, 4-[(2S,6R)-2-[[3-[4-(3-amino-3-methyl-azetidin-1-yl)phenyl]azetidin-1-yl]methyl]-6-methyl-morpholin-4-yl]-3-fluoro-pyrazolo[1,5-a]pyridine-7-carbonitrile]
0.022 µM | -12% | -1% | CO[C@H]1CN(c2cc(C)nc(N3CCN(C[C@H]4CN(c5ccc(C#N)c6nccnc56)C[C@@H](C)O4)CC3)n2)C[C@@H]1N [Example 104, 8-[(2S,6R)-2-[[4-[4-[(3S,4S)-3-amino-4-methoxy-pyrrolidin-1-yl]-6-methyl-pyrimidin-2-yl]piperazin-1-yl]methyl]-6-methyl-morpholin-4-yl]quinoxaline-5-carbonitrile]
0.093 µM | 18% | 2% | C[C@@H]1CN(c2ccc(C#N)c3ncccc23)C[C@H](CN2CCC(c3cccc(C4CCNCC4)c3)CC2)O1 [Example 2, 5-[(2R,6S)-2-methyl-6-[[4-[3-(4-piperidyl)phenyl]-1-piperidyl]methyl]morpholin-4-yl]quinoline-8-carbonitrile]
0.021 µM | 8% | -8.5% | Cc1ccc(N2C[C@H](CN3CCN(c4nccc(N5CCNCC5)n4)CC3)O[C@H](C)C2)c2nccnc12 [Example 116, (2R,6S)-2-methyl-4-(8-methylquinoxalin-5-yl)-6-[[4-(4-piperazin-1-ylpyrimidin-2-yl)piperazin-1-yl]methyl]morpholine]
0.014 µM | 44% | 22% | C[C@@H]1CN(c2ccc(C#N)c3ncccc23)C[C@H](CN2CCN(c3ccnc(N4C[C@H](N)[C@@H](F)C4)n3)CC2)O1 [Example 110, 5-[(2S,6R)-2-[[4-[2-[(3S,4S)-3-amino-4-fluoro-pyrrolidin-1-yl]pyrimidin-4-yl]piperazin-1-yl]methyl]-6-methyl-morpholin-4-yl]quinoline-8-carbonitrile]
